Results taken from patent US20160367623A1, “AGONISTS OF GUANYLATE CYCLASE USEFUL FOR THE TREATMENT OF GASTROINTESTINAL DISORDERS, INFLAMMATION, CANCER AND OTHER DISORDERS” (priority 2015, published 2016).
Bridge positions count the residues as written; N and C are the ends. Ends that are not written are not given here.

Key:
[1] = system: patients with chronic idiopathic constipation (CIC); experiment: First phase 3 CIC trial: stool consistency, Bristol Stool Form Scale (BSFS) change from baseline; assay type: in vivo, human; conditions: for Change from Baseline in Stool Consistency, Difference from Placebo: overall 12-week; for Change from Baseline in Stool Consistency (BSFS), LS Mean (SE): overall average across the 12-week treatment period, ITT; for mean increase from baseline in BSFS score: placebo 0.77
Description: Both trials include a two-week pre-treatment baseline period, a 12-week treatment period, and a two-week post-treatment period. The phase 3 CIC program was designed to support regulatory submission in the U. S.
Patients were selected using Rome 3 criteria modified for CIC and had (1) fewer than 3 defecations per week, (2) loose stools occurring rarely without laxatives, (3) inadequate criteria for irritable bowel syndrome with constipation (IBS-C), and (4) at least two of the following applied to at least 25% of defecations: (a) straining during evacuation, (b) lumpy or hard stools, (c) sensation of anorectal obstruction or blockage. Rome 3 requires patients to fulfill the criteria for the last 3 months with symptom onset at least 6 months prior to diagnosis.

[2] = system: patients with chronic idiopathic constipation (CIC); conditions: in vivo

Asn^1-Asp^2-Glu^3-Cys^4-Glu^5-Leu^6-Cys^7-Val^8-Asn^9-Val^10-Ala^11-Cys^12-Thr^13-Gly^14-Cys^15-Leu^16 (NDECELCVNVACTGCL; disulfide 4-12, 7-15) [Plecanatide]
Week 1 Change from Baseline in Stool Consistency, Difference from Placebo ([1]; 3 mg): 0.92
Week 1 Change from Baseline in Stool Consistency, LS Mean (SE) ([1]; 3 mg): 1.50 (0.071)
stool consistency after discontinuation of treatment ([1]; 3.0 mg and 6.0 mg, post-treatment period): returned towards baseline with no indication of an exaggerated or rebound effect
Week 1 Change from Baseline in Stool Consistency, Mean (SD) ([1]; 3 mg, n 414): 1.57 (1.563)
Change from Baseline in Stool Consistency, Difference from Placebo ([1]; 3 mg): 0.76
Change from Baseline in Stool Consistency (BSFS), LS Mean (SE) ([1]; 3 mg): 1.53 (0.058)
mean increase from baseline in BSFS score ([1]; 3.0 mg): 1.53
Week 1 Change from Baseline in Stool Consistency, Difference from Placebo ([1]; 6 mg): 0.85
Week 1 Change from Baseline in Stool Consistency, LS Mean (SE) ([1]; 6 mg): 1.42 (0.072)
Week 1 Change from Baseline in Stool Consistency, Mean (SD) ([1]; 6 mg, n 399): 1.42 (1.640)
Change from Baseline in Stool Consistency, Difference from Placebo ([1]; 6 mg): 0.75
Change from Baseline in Stool Consistency (BSFS), LS Mean (SE) ([1]; 6 mg): 1.52 (0.059)
mean increase from baseline in BSFS score ([1]; 6.0 mg): 1.52
Week 1 Change from Baseline in Stool Consistency, Mean (SD) ([1]; Active Combined, n 813): 1.49 (1.602)
serum chemistries, hematology, urinalysis, ECG or vital signs [2]: No clinically relevant abnormalities were observed
